The assay addresses MAPK14 (human) (UniProt Q16539). In words: Inhibition of LPS Stimulated TNF Production by U937 Cells. The settings on record: for inhibition: concentration not given here.

Inhibition and IC50 data for 82 compounds are collected here from the Kinase Knowledgebase extract (Sharma et al. 2016).

A value given as a limit tells only on which side of the number the result lay.

Chain of MAPK14 (human) (Q16539 whole entry, looked up): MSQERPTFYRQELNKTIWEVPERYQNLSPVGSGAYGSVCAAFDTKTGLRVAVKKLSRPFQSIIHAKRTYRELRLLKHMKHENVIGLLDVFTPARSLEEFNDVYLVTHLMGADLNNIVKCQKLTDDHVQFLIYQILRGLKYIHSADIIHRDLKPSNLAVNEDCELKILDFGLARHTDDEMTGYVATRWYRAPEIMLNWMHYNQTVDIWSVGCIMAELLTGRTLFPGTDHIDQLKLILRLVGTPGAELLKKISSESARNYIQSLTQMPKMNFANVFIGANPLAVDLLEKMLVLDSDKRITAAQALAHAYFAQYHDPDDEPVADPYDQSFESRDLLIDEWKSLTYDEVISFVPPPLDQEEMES

Take `C[C@@H](NS(=O)(=O)c1ccc(F)c(Cl)c1)c1[nH]nc(-c2ccc(F)cc2)c1-c1ccncc1`: the inhibition (in general, the drop in the measured response relative to a control, in per cent) was determined as 98%.
Consider `O=[N+]([O-])c1cccc(S(=O)(=O)NCc2[nH]nc(-c3ccc(F)cc3)c2-c2ccncc2)c1`, for which the half-inhibitory concentration (IC50) (as a rule, the midpoint of a concentration-inhibition curve) came to 3920 nM.
Regarding `O=C(NCc1[nH]nc(-c2ccc(F)cc2)c1-c1ccncc1)c1ccco1`, the inhibition worked out at 8%.
`O=C(Nc1ccccc1F)N1CCC(c2[nH]nc(-c3ccc(F)cc3)c2-c2ccncc2)CC1` had an IC50 of 92 nM. That is a double-digit nanomolar value.
In turn, `C[C@H](NC(=O)c1c(Cl)cccc1Cl)c1[nH]nc(-c2ccc(F)cc2)c1-c1ccncc1` had an inhibition of 35%.
Same read-out and setting: in the case of `O=C(NCc1[nH]nc(-c2ccc(F)cc2)c1-c1ccncc1)NC(=O)c1ccccc1` it was 28%.
`Fc1ccc(-c2[nH]nc(-c3ccccc3)c2-c2ccncc2)cc1`: the IC50 is 77 nM.
`CN(C)c1cccc2c(S(=O)(=O)NCCc3[nH]nc(-c4ccc(F)cc4)c3-c3ccncc3)cccc12` registered an inhibition of 28%.
`Cc1ccccc1C(=O)NCCc1[nH]nc(-c2ccc(F)cc2)c1-c1ccncc1` gave an inhibition of 9%.
In the case of `C[C@H](NC(=O)c1ccno1)c1[nH]nc(-c2ccc(F)cc2)c1-c1ccncc1`, the inhibition was 28%.
`CC(C)(C)C(=O)N[C@H](Cc1ccccc1)c1[nH]nc(-c2ccc(F)cc2)c1-c1ccncc1`: the half-inhibitory concentration (IC50) was above 1000 nM.
In the case of `Cc1cc(C)c(S(=O)(=O)N[C@H](C)c2[nH]nc(-c3ccc(F)cc3)c2-c2ccncc2)c(C)c1`, the inhibition was found to be 65%.
In the case of `CNC(=O)N[C@H](Cc1ccccc1)c1[nH]nc(-c2ccc(F)cc2)c1-c1ccncc1`, the IC50 is above 1000 nM.
In turn, `C[C@H](NS(=O)(=O)c1ccc(F)cc1Cl)c1[nH]nc(-c2ccc(F)cc2)c1-c1ccncc1` registered an inhibition of 85%.
`C[C@H](NC(=O)c1cccc(C(F)(F)F)c1)c1[nH]nc(-c2ccc(F)cc2)c1-c1ccncc1` showed an inhibition of 32%.
As to `N#Cc1cccc(C(=O)NCCc2[nH]nc(-c3ccc(F)cc3)c2-c2ccncc2)c1`, the inhibition is 7%.
In turn, `O=C(COc1ccc(Cl)cc1)NCc1[nH]nc(-c2ccc(F)cc2)c1-c1ccncc1` yielded an IC50 of 1250 nM.
`Cc1n[nH]c(-c2ccccc2)c1-c1ccncc1` returned a half-maximal inhibitory concentration (IC50) of 578 nM.
Same read-out and setting: in the case of `C#CCn1ncc(-c2ccncc2)c1-c1ccc(F)cc1` it was above 10000 nM.
In the case of `COc1cc(C(=O)NCc2[nH]nc(-c3ccc(F)cc3)c2-c2ccncc2)cc(OC)c1OC`, the inhibition was 21%.
In turn, `C[C@H](NC(=O)c1cccs1)c1[nH]nc(-c2ccc(F)cc2)c1-c1ccncc1` came in with an inhibition of 21%.
Turning to `CC(C)COC(=O)NCc1[nH]nc(-c2ccc(F)cc2)c1-c1ccncc1`, the IC50 worked out at 720 nM.
On to `O=C(NCCCc1[nH]nc(-c2ccc(F)cc2)c1-c1ccncc1)NCCc1ccccn1`, for which the inhibition was 24%.
The same measure, in the same setting: in the case of `C[C@H](NC(=O)c1cc(F)cc(C(F)(F)F)c1)c1[nH]nc(-c2ccc(F)cc2)c1-c1ccncc1` it was 36%; in that of `C[C@H](NS(=O)(=O)c1ccc(CNC(=O)c2ccccc2)s1)c1[nH]nc(-c2ccc(F)cc2)c1-c1ccncc1`, 83%; in that of `COC(=O)CCCC(=O)NCc1[nH]nc(-c2ccc(F)cc2)c1-c1ccncc1`, 20%.
Turning to `O=S(=O)(c1cccc(Cl)c1Cl)N1CCC(c2[nH]nc(-c3ccc(F)cc3)c2-c2ccncc2)CC1`, the inhibition came out at 22%.
Take `CN(C)c1cccc2c(S(=O)(=O)N3CCC(c4[nH]nc(-c5ccc(F)cc5)c4-c4ccncc4)CC3)cccc12`: the inhibition was 18%.
`O=C(NCc1[nH]nc(-c2ccc(F)cc2)c1-c1ccncc1)[C@@H]1CCCN1` displayed an inhibition of 22%.
On to `C[C@@H](NS(=O)(=O)c1ccc(-c2ccccn2)s1)c1[nH]nc(-c2ccc(F)cc2)c1-c1ccncc1`, for which the inhibition is 68%.
Still for that read-out and setting: in the case of `CCS(=O)(=O)N[C@@H](CCC(=O)NC)c1[nH]nc(-c2ccc(F)cc2)c1-c1ccncc1` it was 13%.
For `Cc1cccc(-c2n[nH]cc2-c2ccnc(C)c2)c1`, the IC50 amounted to 301 nM.
For the compound `CCNC(=O)N[C@@H](C)c1[nH]nc(-c2ccc(F)cc2)c1-c1ccncc1`, the inhibition turned out to be 50%.
The same measure, in the same setting: in the case of `COc1ccc(Cl)cc1S(=O)(=O)N[C@@H](C)c1[nH]nc(-c2ccc(F)cc2)c1-c1ccncc1` it was 76%; in that of `C[C@@H](NS(=O)(=O)c1cc(Cl)cc(Cl)c1)c1[nH]nc(-c2ccc(F)cc2)c1-c1ccncc1`, 91%; in that of `CC(=O)Nc1ccc(S(=O)(=O)N[C@H](C)c2[nH]nc(-c3ccc(F)cc3)c2-c2ccncc2)cc1`, 64%.
For `CCCCOc1ccc(S(=O)(=O)NCc2[nH]nc(-c3ccc(F)cc3)c2-c2ccncc2)cc1`, the inhibition came to 31%.
With `C[C@H](NC(=O)c1ccc(F)c(F)c1)c1[nH]nc(-c2ccc(F)cc2)c1-c1ccncc1`, the inhibition came to 52%.
The compound `O=S(=O)(c1c(F)cccc1F)N1CCC(c2[nH]nc(-c3ccc(F)cc3)c2-c2ccncc2)CC1` yielded an inhibition of 8%.
On the same count and under the same terms, in the case of `C[C@@H](NC(=O)c1ccccn1)c1[nH]nc(-c2ccc(F)cc2)c1-c1ccncc1` it was 24%; in that of `O=C(NCc1[nH]nc(-c2ccc(F)cc2)c1-c1ccncc1)C(F)(F)F`, 67%; in that of `C=CCNC(=O)N[C@@H](C)c1[nH]nc(-c2ccc(F)cc2)c1-c1ccncc1`, 42%.
In turn, `CCc1ccc(S(=O)(=O)NCc2[nH]nc(-c3ccc(F)cc3)c2-c2ccncc2)cc1` had an inhibition of 8%.
Regarding `C[C@H](NS(=O)(=O)Cc1ccccc1[N+](=O)[O-])c1[nH]nc(-c2ccc(F)cc2)c1-c1ccncc1`, the inhibition was found to be 88%.
In turn, `C[C@H](NS(=O)(=O)c1cccc2ccccc12)c1[nH]nc(-c2ccc(F)cc2)c1-c1ccncc1` returned an inhibition of 80%.
Turning to `CC(C)=CC(=O)N[C@H](C)c1[nH]nc(-c2ccc(F)cc2)c1-c1ccncc1`, the inhibition stood at 28%.
`C[C@H](NC(=O)c1c(F)cc(F)cc1F)c1[nH]nc(-c2ccc(F)cc2)c1-c1ccncc1` yielded an inhibition of 68%.
On the same count and under the same terms, in the case of `N#Cc1ccc(S(=O)(=O)N2CCC(c3[nH]nc(-c4ccc(F)cc4)c3-c3ccncc3)CC2)cc1` it was 24%; in that of `C[C@H](NS(=O)(=O)c1cccc(Br)c1)c1[nH]nc(-c2ccc(F)cc2)c1-c1ccncc1`, 79%.
With `C[C@@H](NC(=O)c1cc(F)ccc1F)c1[nH]nc(-c2ccc(F)cc2)c1-c1ccncc1`, the inhibition was determined as 67%.
Regarding `Cc1noc(C)c1S(=O)(=O)N[C@@H](C)c1[nH]nc(-c2ccc(F)cc2)c1-c1ccncc1`, the inhibition is 74%.
In turn, `CCc1n[nH]c(-c2ccccc2)c1-c1ccncc1` showed an IC50 of 243 nM.
With `Cn1cc(-c2ccnc(F)c2)c(-c2ccc(F)cc2)n1`, the IC50 amounted to 456 nM. Against the preceding compound, the IC50 is about 1.9-fold higher.
For `CCCCS(=O)(=O)N[C@H](C)c1[nH]nc(-c2ccc(F)cc2)c1-c1ccncc1`, the inhibition turned out to be 45%.
Same read-out and setting: under `O=C(NCc1[nH]nc(-c2ccc(F)cc2)c1-c1ccncc1)c1ccc(Cl)c(Cl)c1` stands 31%.
Regarding `CNC(=O)CC[C@H](NC(=O)Nc1ccccc1F)c1[nH]nc(-c2ccc(F)cc2)c1-c1ccncc1`, the IC50 was above 1000 nM.
In turn, `C[C@H](NC(=O)c1ccc(F)c(F)c1F)c1[nH]nc(-c2ccc(F)cc2)c1-c1ccncc1` came in with an inhibition of 18%.
As for `O=C(NCc1[nH]nc(-c2ccc(F)cc2)c1-c1ccncc1)c1cc(F)cc(F)c1`, the inhibition is 34%.
In turn, `CN(C(=O)NCCc1[nH]nc(-c2ccc(F)cc2)c1-c1ccncc1)c1ccccc1` displayed an inhibition of 41%.
`C[C@H](NC(=O)c1cccc(F)c1F)c1[nH]nc(-c2ccc(F)cc2)c1-c1ccncc1`: the inhibition came to 32%.
In the case of `C[C@H](NC(=O)c1ccc(F)cc1F)c1[nH]nc(-c2ccc(F)cc2)c1-c1ccncc1`, the inhibition came out at 45%.
Compound `C[C@@H](NS(=O)(=O)c1ccc(F)cc1)c1[nH]nc(-c2ccc(F)cc2)c1-c1ccncc1` returned an IC50 of 900 nM. This counts as sub-micromolar.
Compound `C[C@H](NC(=O)c1c(F)ccc(F)c1F)c1[nH]nc(-c2ccc(F)cc2)c1-c1ccncc1` returned an inhibition of 67%.
The same measure, in the same setting: under `C[C@@H](NS(=O)(=O)C(F)(F)F)c1[nH]nc(-c2ccc(F)cc2)c1-c1ccncc1` stands 18%.
On to `CS(=O)(=O)c1ccc(CNC(=O)NCCCc2[nH]nc(-c3ccc(F)cc3)c2-c2ccncc2)cc1`, for which the half-inhibitory concentration (IC50) is above 1000 nM.
`C[C@@H](NS(=O)(=O)c1ccc(Cl)cc1)c1[nH]nc(-c2ccc(F)cc2)c1-c1ccncc1` had an inhibition of 92%.
For the compound `O=C(NCCCc1[nH]nc(-c2ccc(F)cc2)c1-c1ccncc1)NCCc1c[nH]cn1`, the IC50 is above 1000 nM.
`C[C@H](NC(=O)c1ccc(C(F)(F)F)cc1F)c1[nH]nc(-c2ccc(F)cc2)c1-c1ccncc1` came in with an inhibition of 33%.
Same read-out and setting: in the case of `C[C@@H](NS(=O)(=O)c1ccc(Br)cc1)c1[nH]nc(-c2ccc(F)cc2)c1-c1ccncc1` it was 89%; in that of `O=C(NCc1[nH]nc(-c2ccc(F)cc2)c1-c1ccncc1)c1cccc(Cl)c1`, 32%; in that of `C[C@@H](NC(=O)c1ccc(C(F)(F)F)cc1F)c1[nH]nc(-c2ccc(F)cc2)c1-c1ccncc1`, 48%.
`OCCn1cc(-c2ccnc(CCc3ccc(F)cc3)c2)c(-c2ccc(F)cc2)n1` displayed an IC50 of 583 nM.
Still for that read-out and setting: under `C[C@@H](NC(N)=O)c1[nH]nc(-c2ccc(F)cc2)c1-c1ccncc1` stands 1510 nM.
Compound `O=C(NCCCc1[nH]nc(-c2ccc(F)cc2)c1-c1ccncc1)NCC1CC1` showed an inhibition of 36%.
For `Clc1ccc(-c2n[nH]cc2-c2ccncc2)cc1Cl`, the IC50 was 170 nM. This counts as sub-micromolar.
Still for that read-out and setting: under `CN(C(=O)N[C@@H](Cc1ccccc1)c1[nH]nc(-c2ccc(F)cc2)c1-c1ccncc1)c1ccccc1` stands below 1000 nM.
In the case of `C[C@@H](NS(=O)(=O)c1cn(C)cn1)c1[nH]nc(-c2ccc(F)cc2)c1-c1ccncc1`, the inhibition is 80%.
Take `CC(C)S(=O)(=O)NCc1[nH]nc(-c2ccc(F)cc2)c1-c1ccncc1`: the IC50 is 5000 nM. This lies in the single-digit micromolar range.
`C[C@@H](NC(=O)c1cccc(Cl)c1Cl)c1[nH]nc(-c2ccc(F)cc2)c1-c1ccncc1` gave an inhibition of 43%.
`COC(=O)CCC(=O)NCc1[nH]nc(-c2ccc(F)cc2)c1-c1ccncc1` registered an IC50 of 10000 nM.
In turn, `CC(C)OC(=O)N[C@H](C)c1[nH]nc(-c2ccc(F)cc2)c1-c1ccncc1` registered an inhibition of 45%.
On to `Fc1ccc(-c2[nH]nc(Nc3ccccc3)c2-c2ccncc2)cc1`, for which the IC50 is 1090 nM.
